These results are taken from patent US11833160B2, “Ursodeoxycholic acid derivatives as HDAC inhibitors for the treatment of polycystic diseases” (UNIVERSIDAD DEL PAIS VASCO/EUSKAL HERRIKO UNIBERTSITATEA, priority 2017, dated 2023).

Each structure is given as a SMILES string.

The subject of one series is HDAC enzymes. Put plainly: Enzymatic activity assays in 11 HDAC enzymes (statements on the panel). The class given is biochemical, human. As to conditions: for inhibitory capacity with respect to the rest of the HDAC enzymes: HDAC enzymes other than HDAC6. As to the method:
(§1) Peptide substrates: all HDAC assays were performed using acetylated peptide substrates labeled with 7-amino-4-methylcoumarin (AMC): • Substrate for isoforms HDAC1, 2, 3, 6, 10, 11, and HeLa nuclear extract assays: acetylated fluorogenic peptide from p53 residues 379-382 (RHKKAc). • Substrate for isoforms HDAC4, 5, 7, 9: fluorogenic Boc-L-Lys (s-trifluoroacetyl)-AMC. • Substrate for HDAC8 assays: acetylated fluorogenic peptide from p53 residues 379-382 (RHKAcKAc).
(§2) 50 μl of peptide substrate (see “peptide substrates” section above) and an optimal concentration of the corresponding enzyme (see “enzymes” section above) in the assay buffer at a final DMSO concentration of 1% were incubated in the presence of gradient concentrations of inhibitors (10-dose IC50 mode with 3-fold serial dilution) at 30° C. for 2 hours. The reactions were carried out in a 96-well microplate for fluorometry in a 50 μl reaction volume. After the deacetylation reaction, Fluor-de-Lys-Developer (BioMol Cat. #KI-105) was added to each well to digest the deacetylated substrate, thereby producing the fluorescent signal. The reaction was carried out for 45 minutes at 30° C. with 5% CO2; the fluorescent signal was then measured using an excitation wavelength of 360 nm and an emission wavelength of 460 nm in a microplate-reading fluorometer (GeminiXS, Molecular Devices, Sunnyvale, CA). A curve of deacetylated standard (Biomol, Cat. #KI-142; made from 100 μM with 1:2 dilution and 10 doses, 6 μl) allowed the conversion of the fluorescent signal into micromoles of deacetylated product. All experiments were performed in triplicate. The IC50s were calculated by fitting the experimental data to dose-response curve. DMSO was used as negative control; Trichostatin A (Biomol Cat. #GR-309) was used as positive control inhibitor.
(§3) Enzymatic activity assays were carried out in 11 HDAC enzymes, including HDAC6.

In another series the target is T1, human HDAC1 (Homo sapiens, UniProt Q13547).
T1 construct: GST (C); purchased BioMol SE-456; host or cells: baculovirus / Sf9 cells
T1 sequence (Q13547 whole entry): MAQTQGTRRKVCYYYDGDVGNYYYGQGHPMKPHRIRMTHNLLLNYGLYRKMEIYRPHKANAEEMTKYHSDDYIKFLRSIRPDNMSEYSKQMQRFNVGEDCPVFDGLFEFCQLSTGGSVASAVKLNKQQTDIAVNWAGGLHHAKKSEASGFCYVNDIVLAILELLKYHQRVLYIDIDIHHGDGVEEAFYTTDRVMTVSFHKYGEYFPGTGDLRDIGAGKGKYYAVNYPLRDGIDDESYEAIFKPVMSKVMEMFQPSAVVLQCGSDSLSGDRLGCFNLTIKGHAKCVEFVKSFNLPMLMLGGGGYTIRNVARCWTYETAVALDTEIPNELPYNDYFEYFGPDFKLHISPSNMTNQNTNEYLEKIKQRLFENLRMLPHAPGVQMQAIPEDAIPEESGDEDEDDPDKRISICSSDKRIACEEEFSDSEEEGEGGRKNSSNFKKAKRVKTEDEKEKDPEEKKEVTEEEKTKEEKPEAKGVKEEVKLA
The experiment in a line: HDAC1 enzymatic activity assay (fluorogenic peptide). The class given is biochemical. As to conditions: for IC50: 10-dose, 3-fold serial dilution, triplicate. As to the method:
as §1, §2, §3

Another series addresses T2, human HDAC2 (Homo sapiens, UniProt Q92769).
T2 construct: His (C); purchased BioMol SE-500; host or cells: baculovirus / Sf9 cells
Put plainly: HDAC2 enzymatic activity assay (fluorogenic peptide). As to conditions: 10-dose, 3-fold serial dilution, triplicate. The class given is biochemical. As to the method: as §1, §2, §3

Another series addresses T3, human HDAC6 (Homo sapiens, UniProt Q9UBN7).
T3 construct: GST (N); purchased BioMol SE-508; host or cells: baculovirus / Sf9 cells
T3 sequence (Q9UBN7 1-1215): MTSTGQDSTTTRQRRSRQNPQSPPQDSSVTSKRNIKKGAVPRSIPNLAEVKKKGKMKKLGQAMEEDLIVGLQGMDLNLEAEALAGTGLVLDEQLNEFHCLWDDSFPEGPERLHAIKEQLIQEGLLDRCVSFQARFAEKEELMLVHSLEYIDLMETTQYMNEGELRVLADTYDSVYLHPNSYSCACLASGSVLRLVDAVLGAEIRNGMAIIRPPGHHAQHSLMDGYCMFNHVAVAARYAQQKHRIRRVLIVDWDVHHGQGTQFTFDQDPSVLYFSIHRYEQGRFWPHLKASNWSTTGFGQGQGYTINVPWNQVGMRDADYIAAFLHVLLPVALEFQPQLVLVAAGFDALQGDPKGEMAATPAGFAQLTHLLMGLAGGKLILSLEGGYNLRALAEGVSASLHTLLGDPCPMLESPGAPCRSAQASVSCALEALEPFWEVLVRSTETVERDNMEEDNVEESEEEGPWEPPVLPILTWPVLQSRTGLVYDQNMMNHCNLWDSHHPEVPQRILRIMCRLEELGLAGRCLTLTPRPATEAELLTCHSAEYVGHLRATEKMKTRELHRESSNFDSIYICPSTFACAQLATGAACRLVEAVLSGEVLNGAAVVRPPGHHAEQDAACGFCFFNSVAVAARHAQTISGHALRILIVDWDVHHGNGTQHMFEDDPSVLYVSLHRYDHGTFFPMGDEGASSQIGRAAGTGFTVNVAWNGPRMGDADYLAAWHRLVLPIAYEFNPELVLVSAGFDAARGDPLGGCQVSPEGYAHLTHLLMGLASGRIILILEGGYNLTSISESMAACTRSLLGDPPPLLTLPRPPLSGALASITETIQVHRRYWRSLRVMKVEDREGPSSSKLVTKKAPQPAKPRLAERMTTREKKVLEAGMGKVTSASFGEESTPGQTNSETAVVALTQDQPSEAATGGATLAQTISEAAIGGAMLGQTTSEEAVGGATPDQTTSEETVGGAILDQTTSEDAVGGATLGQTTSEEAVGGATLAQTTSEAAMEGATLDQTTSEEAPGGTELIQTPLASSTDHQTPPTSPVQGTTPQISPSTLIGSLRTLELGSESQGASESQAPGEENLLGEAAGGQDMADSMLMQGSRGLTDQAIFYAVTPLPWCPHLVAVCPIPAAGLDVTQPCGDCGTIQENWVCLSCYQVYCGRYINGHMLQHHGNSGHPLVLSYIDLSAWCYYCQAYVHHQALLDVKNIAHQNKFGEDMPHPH
Put plainly: HDAC6 enzymatic activity assay (fluorogenic peptide). The class given is biochemical. The conditions noted are these: for IC50: 10-dose, 3-fold serial dilution, triplicate; for HDAC6 selectivity proportion: matches IC50 HDAC1 / IC50 HDAC6. As to the method:
as §1, §2, §3

For another series, the target named is T4, human HDAC5 (Homo sapiens, UniProt Q9UQL6).
T4 construct: GST (N); purchased BioMol, Hamburg, Germany; host or cells: baculovirus / Sf9 cells
T4 sequence (Q9UQL6 1-1123 isoform Q9UQL6-3): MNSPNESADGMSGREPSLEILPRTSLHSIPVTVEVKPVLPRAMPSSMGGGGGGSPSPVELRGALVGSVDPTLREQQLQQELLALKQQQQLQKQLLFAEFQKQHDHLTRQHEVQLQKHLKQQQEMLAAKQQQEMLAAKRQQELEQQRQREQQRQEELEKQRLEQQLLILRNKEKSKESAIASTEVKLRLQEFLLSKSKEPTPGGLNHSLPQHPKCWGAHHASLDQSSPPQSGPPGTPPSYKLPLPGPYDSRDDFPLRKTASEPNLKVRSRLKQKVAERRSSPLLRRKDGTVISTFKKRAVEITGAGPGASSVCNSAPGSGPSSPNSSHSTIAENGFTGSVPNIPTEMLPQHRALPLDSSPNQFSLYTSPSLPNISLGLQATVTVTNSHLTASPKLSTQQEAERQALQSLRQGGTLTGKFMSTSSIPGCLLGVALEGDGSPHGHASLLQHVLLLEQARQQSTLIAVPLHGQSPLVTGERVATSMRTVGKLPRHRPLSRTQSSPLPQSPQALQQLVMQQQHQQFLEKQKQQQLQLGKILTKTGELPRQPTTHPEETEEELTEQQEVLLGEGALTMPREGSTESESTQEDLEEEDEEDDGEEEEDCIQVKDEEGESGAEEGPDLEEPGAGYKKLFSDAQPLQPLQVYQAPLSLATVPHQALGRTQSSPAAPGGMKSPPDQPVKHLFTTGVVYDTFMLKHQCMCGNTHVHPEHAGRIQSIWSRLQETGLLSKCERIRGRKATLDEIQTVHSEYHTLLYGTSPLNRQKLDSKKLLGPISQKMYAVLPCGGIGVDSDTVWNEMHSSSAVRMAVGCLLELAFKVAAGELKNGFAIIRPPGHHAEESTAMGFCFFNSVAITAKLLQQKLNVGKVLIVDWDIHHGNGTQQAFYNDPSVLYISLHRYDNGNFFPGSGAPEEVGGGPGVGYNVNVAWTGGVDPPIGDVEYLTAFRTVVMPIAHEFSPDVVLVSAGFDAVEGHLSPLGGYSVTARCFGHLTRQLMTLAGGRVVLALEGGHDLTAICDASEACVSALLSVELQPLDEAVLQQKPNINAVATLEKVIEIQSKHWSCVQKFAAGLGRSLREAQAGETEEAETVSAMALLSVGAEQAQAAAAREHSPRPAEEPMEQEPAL
Put plainly: HDAC5 enzymatic activity assay (fluorogenic peptide). The class given is biochemical. The conditions noted are these: 10-dose, 3-fold serial dilution, triplicate. As to the method:
as §1
50 μl of peptide substrate (see “peptide substrates” section above) and an optimal concentration of the corresponding enzyme (see “enzymes” section above) in the assay buffer at a final DMSO concentration of 1% were incubated in the presence of gradient concentrations of inhibitors (10-dose IC50 mode with 3-fold serial dilution) at 30° C. for 2 hours. The reactions were carried out in a 96-well microplate for fluorometry in a 50 μl reaction volume. After the deacetylation reaction, Fluor-de-Lys-Developer (BioMol Cat. #KI-105) was added to each well to digest the deacetylated substrate, thereby producing the fluorescent signal. The reaction was carried out for 45 minutes at 30° C. with 5% CO2; the fluorescent signal was then measured using an excitation wavelength of 360 nm and an emission wavelength of 460 nm in a microplate-reading fluorometer (GeminiXS, Molecular Devices, Sunnyvale, CA). […]

A further series deals with T5, human HDAC7 (Homo sapiens, UniProt Q8WUI4).
T5 construct: amino acids 518 end with GST N-terminal tag, MW=78 kDa; GST (N); purchased BioMol, Hamburg, Germany; host or cells: baculovirus expression system
T5 sequence (Q8WUI4 479-952 limits assumed): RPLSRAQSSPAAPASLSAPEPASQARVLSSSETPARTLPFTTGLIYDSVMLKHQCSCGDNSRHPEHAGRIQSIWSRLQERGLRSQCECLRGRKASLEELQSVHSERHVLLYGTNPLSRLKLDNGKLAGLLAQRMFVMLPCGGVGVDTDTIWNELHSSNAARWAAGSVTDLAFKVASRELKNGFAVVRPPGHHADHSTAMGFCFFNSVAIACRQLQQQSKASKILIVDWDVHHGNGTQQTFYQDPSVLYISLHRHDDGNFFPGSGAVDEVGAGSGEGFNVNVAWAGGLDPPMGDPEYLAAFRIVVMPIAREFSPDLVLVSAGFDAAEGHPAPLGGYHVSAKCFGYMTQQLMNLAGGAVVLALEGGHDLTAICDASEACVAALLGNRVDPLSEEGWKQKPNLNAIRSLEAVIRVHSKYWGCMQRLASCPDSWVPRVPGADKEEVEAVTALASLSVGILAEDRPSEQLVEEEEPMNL
Put plainly: HDAC7 enzymatic activity assay (fluorogenic peptide). In kind it is biochemical. As to conditions: 10-dose, 3-fold serial dilution, triplicate. As for the experimental part: as §1, §2, §3

Another series concerns the target T6, human HDAC8 (Homo sapiens, UniProt Q9BY41).
T6 construct: purchased BioMol SE-145; host or cells: E. coli
T6 sequence (Q9BY41 1-377): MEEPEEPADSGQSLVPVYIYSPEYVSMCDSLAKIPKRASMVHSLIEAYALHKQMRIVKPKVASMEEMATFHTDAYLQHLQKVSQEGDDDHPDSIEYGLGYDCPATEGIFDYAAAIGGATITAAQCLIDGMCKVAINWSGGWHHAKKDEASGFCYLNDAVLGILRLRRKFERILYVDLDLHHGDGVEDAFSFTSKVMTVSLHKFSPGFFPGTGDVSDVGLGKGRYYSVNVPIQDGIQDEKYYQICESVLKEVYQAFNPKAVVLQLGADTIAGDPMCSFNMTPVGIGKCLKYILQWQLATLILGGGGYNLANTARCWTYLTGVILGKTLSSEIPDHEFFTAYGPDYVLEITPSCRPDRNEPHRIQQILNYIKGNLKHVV
Put plainly: HDAC8 enzymatic activity assay (fluorogenic peptide). In kind it is biochemical. The conditions noted are these: 10-dose, 3-fold serial dilution, triplicate. As to the method: as §1, §2, §3

T2 sequence (Q92769 whole entry): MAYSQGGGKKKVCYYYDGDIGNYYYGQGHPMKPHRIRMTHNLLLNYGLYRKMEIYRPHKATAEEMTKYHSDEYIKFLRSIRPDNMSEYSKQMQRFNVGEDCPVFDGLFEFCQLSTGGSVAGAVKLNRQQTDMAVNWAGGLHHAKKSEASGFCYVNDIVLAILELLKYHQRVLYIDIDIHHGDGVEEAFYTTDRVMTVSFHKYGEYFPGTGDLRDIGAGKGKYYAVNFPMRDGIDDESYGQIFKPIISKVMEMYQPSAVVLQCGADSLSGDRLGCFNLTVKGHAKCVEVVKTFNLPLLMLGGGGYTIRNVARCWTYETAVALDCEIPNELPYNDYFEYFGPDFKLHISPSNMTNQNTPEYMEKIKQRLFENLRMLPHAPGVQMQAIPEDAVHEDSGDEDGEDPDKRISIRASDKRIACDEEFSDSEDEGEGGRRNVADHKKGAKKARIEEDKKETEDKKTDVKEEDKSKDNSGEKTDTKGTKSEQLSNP

As a reminder, the melting point is the temperature, or range, at which the solid turns liquid. Compound `C[C@H](CCC(=O)NCc1ccc(C(=O)Nc2cc(-c3ccccc3)ccc2N)cc1)[C@H]1CC[C@H]2[C@@H]3[C@@H](O)C[C@@H]4C[C@H](O)CC[C@]4(C)[C@H]3CC[C@]12C` returned a melting point of 163 to 165 °C.
With `C[C@H](CCC(=O)O)[C@H]1CC[C@H]2[C@@H]3[C@@H](O)C[C@@H]4C[C@H](O)CC[C@]4(C)[C@H]3CC[C@]12C` [UDCA, ursodeoxycholic acid], in the series with HDAC enzymes (in the assayed concentration range), the “inhibitory activity on any HDAC” value was “no inhibitory activity whatsoever”.
Compound `C[C@H](CCC(=O)NCc1ccc(C(=O)NO)o1)[C@H]1CC[C@H]2[C@@H]3[C@@H](O)C[C@@H]4C[C@H](O)CC[C@]4(C)[C@H]3CC[C@]12C` showed a melting point of 149 to 151 °C.
The same measure, in the same setting: with `C[C@H](CCC(=O)Nc1ccccc1S)[C@H]1CC[C@H]2[C@@H]3[C@@H](O)C[C@@H]4C[C@H](O)CC[C@]4(C)[C@H]3CC[C@]12C` the figure was 157 to 158 °C; with `C[C@H](NC(=O)CC[C@@H](C)[C@H]1CC[C@H]2[C@@H]3[C@@H](O)C[C@@H]4C[C@H](O)CC[C@]4(C)[C@H]3CC[C@]12C)C(=O)NO`, 170 to 172 °C; with `C[C@H](CCC(=O)NCCCC(=O)NO)[C@H]1CC[C@H]2[C@@H]3[C@@H](O)C[C@@H]4C[C@H](O)CC[C@]4(C)[C@H]3CC[C@]12C`, 165 to 167 °C.
Same read-out and setting: with `C[C@H](CCC(=O)NCCS)[C@H]1CC[C@H]2[C@@H]3[C@@H](O)C[C@@H]4C[C@H](O)CC[C@]4(C)[C@H]3CC[C@]12C` the figure was 116 to 117 °C.
A word on the IC50: it is the point on the concentration scale where inhibition reaches its midpoint. Compound `C[C@H](CCC(=O)NCc1ccc(C(=O)Nc2ccccc2N)cc1)[C@H]1CC[C@H]2[C@@H]3[C@@H](O)C[C@@H]4C[C@H](O)CC[C@]4(C)[C@H]3CC[C@]12C` [Ii, N-(2-aminophenyl)-4-(((R)-4-((3R,5S,7S,8R,9S,10S,13R,14S,17R)-3,7-dihydroxy-10,13-dimethylhexadecahydro-1H-cyclopenta[a]phenanthren-17-yl)pentanamide)methyl)benzamide] displayed a melting point of 168 to 170 °C. The compound also yielded an IC50 at human HDAC1 of 0.14 µM. Further, the HDAC1 selectivity proportion at human HDAC1 (matches IC50 HDAC6 / IC50 HDAC1) turned out to be 58. The compound further came in with a 50% inhibitory concentration (IC50) on human HDAC2 of 0.516 µM. On human HDAC6, this compound showed an IC50 of 8.08 µM.
For `NCc1ccc(C(=O)NO)cc1` [4-(aminomethyl)-N-hydroxybenzamide, reference compound], the IC50 on human HDAC5 amounted to 435 µM; against human HDAC7, 14.7 µM; against human HDAC8 it was 13.6 µM.
For `C[C@H](CCC(=O)NCCC(=O)NO)[C@H]1CC[C@H]2[C@@H]3[C@@H](O)C[C@@H]4C[C@H](O)CC[C@]4(C)[C@H]3CC[C@]12C`, the melting point is 180 to 182 °C.
`C[C@H](CCC(=O)NCCCCCC(=O)NO)[C@H]1CC[C@H]2[C@@H]3[C@@H](O)C[C@@H]4C[C@H](O)CC[C@]4(C)[C@H]3CC[C@]12C` [If, 6-((R)-4-((3R,5S,7S,8R,9S,10S,13R,14S,17R)-3,7-dihydroxy-10,13-dimethylhexadecahydro-1H-cyclopenta[a]phenanthren-17-yl)pentanamide)-N-hydroxyhexanamide] showed a melting point of 125 to 127 °C. This compound also came in with a concentration for half-maximal inhibition (IC50) at human HDAC1 of 2.57 µM. For the same compound, at human HDAC6, the “selectivity and inhibitory capacity with respect to HDAC6 enzyme” value is on record as “nanomolar range”; 0.0821 µM corresponded to half-maximal inhibition (IC50); the HDAC6 selectivity proportion came to 31. Moreover, the “inhibitory capacity with respect to the rest of the HDAC enzymes” value with HDAC enzymes is given as “micromolar range”.
The compound `C[C@H](CCC(=O)NCc1ccc(C(=O)NCc2ccc(C(=O)NO)cc2)cc1)[C@H]1CC[C@H]2[C@@H]3[C@@H](O)C[C@@H]4C[C@H](O)CC[C@]4(C)[C@H]3CC[C@]12C` [Ig, 4-(((R)-4-((3R,5S,7S,8R,9S,10S,13R,14S,17R)-3,7-dihydroxy-10,13-dimethylhexadecanohydro-1H-cyclopenta[a]phenanthren-17-yl)pentanamido)methyl)-N-(4-(hydroxycarbamoyl)benzyl)benzamide] displayed a melting point of 187 to 189 °C. At human HDAC1, this compound yielded an IC50 of 15.2 µM. Further, at human HDAC6, the “selectivity and inhibitory capacity with respect to HDAC6 enzyme” value was “nanomolar range”; the midpoint of inhibition, the IC50, lay at 0.00426 µM; the HDAC6 selectivity proportion was 3574. Moreover, the “inhibitory capacity with respect to the rest of the HDAC enzymes” value in the series with HDAC enzymes is reported as “micromolar range”.
